The text below walks through data of paper doi:10.1101/2023.07.10.548257 (bioRxiv, 2024).

The target in the experiment is T1, full-length SHP2^R138Q (Homo sapiens, UniProt Q06124, R138Q).
T1 construct: Full-length SHP2 constructs were diluted in assay buffer; His6-TEV (N, cleaved yes); made in house; host or cells: E. coli BL21(DE3)
T1 sequence (Q06124 1-593 R138Q): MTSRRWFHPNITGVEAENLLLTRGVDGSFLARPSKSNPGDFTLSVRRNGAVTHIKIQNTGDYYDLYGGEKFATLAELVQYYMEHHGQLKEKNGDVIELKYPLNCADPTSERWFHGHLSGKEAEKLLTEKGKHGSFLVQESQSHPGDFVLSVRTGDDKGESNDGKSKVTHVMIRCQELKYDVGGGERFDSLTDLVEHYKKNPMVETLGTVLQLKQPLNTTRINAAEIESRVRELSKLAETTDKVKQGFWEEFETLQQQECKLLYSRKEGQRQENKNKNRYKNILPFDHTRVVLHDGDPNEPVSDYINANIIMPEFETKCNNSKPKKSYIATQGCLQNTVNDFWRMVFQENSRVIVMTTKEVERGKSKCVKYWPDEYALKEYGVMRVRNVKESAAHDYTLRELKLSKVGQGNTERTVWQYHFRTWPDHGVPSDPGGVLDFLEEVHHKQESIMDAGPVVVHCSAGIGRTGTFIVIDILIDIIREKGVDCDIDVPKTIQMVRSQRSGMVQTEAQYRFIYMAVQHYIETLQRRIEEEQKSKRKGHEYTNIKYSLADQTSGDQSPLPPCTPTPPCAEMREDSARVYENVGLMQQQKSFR
Nature of the experiment: SHP2 activation assay using phosphopeptides (DiFMUP), SHP2 R138Q. Format: biochemical. Conditions: activation of full-length SHP2 R138Q (0.05 nM) by phosphopeptide; DiFMUP substrate; HEPES pH 7.2 assay buffer; mean of N (column N). As to the method:
Emitted fluorescence at 455nm was recorded every 25 seconds in a span of 50 minutes using a BioTek Synergy Neo2 multi-mode reader. […]
In all cases, the linear region of the reaction progress curve was determined by visual inspection and fit to a line. These slopes were converted from absorbance or fluorescence units as a function of time to product formation as a function of time using standard curves measured with the reaction products (p-nitrophenol and 6,8-difluoro-7-hydroxy-4-methylcoumarin). […]
SHP2 activation assays using phosphopeptides
Full-length SHP2 constructs were diluted in assay buffer (60 mM HEPES pH 7.2, 75 mM KCl, 75 mM NaCl,1 mM EDTA, 0.05% Tween-20, with 0.5 mM TCEP freshly added) to a 2X concentration of 0.1 nM. Peptides were serially diluted in assay buffer, with the last point of the concentration series fully without peptide. 15 μL of peptide and 15 μL of 800 μM DiFMUP was added to a black 96-well half area plate. Right before starting the plate reader assay, 30 μL SHP2 was added to each well a Supplementary Information - page 4 of 18 […]
final concentration of 0.05nM. Kinetic measurements (Ex 358/Em […]) were taken on a BioTek Neo2 plate reader every 25 seconds for 6 minutes.
Cloning of the PD-1 ITIM scanning mutagenesis library […]
described previously for other peptide display libraries in the eCPX system (2, 4). A series of oligonucleotides spanning the peptide-coding sequence was synthesized with a different NNS codon in place of each wild-type codon (11 oligonucleotides in total). These degenerate primers were pooled then used to amplify a library of linear DNA encoding mutant ITIM fusions to the eCPX scaffold protein.
This library was then cloned into the pBAD33 vector used for surface display.
SH2 specificity profiling using bacterial peptide display
Preparation of bacterial cells
Electrocompetent MC1061 cells were transformed with ~100 ng of the respective library. After 1 hour recovery in 1 mL LB, cells were further diluted into 250 mL LB + 0.1% chloramphenicol. 1.8 mL of overnight culture was used to inoculate 100 mL LB + 0.1% chloramphenicol, and grown until OD600 reached 0.5. 20 mL of cell suspension was induced at 25 °C using a final concentration of 0.4% arabinose until the OD600 ~ 1 (after approximately 4 hours). The cells were spun down at 4000 rpm for 15 minutes, and the pellet was resuspended in PBS so that the OD600 ~1.5. The cells were stored in the fridge and used within a week.
For each sample, 75 μL of Dynabeads™ FlowComp™ Flexi Kit were washed twice in 1 mL SH2 buffer (50 mM HEPES pH 7.5, 150 mM NaCl, 1 mM TCEP, and 0.2% BSA) on a magnetic rack.
The beads were then resuspended in 75 μL of SH2 buffer. SH2 domains were thawed quickly and 20 μM of protein was added to the beads. SH2 buffer was added up to 150 μL, and the suspension was incubated for 1 hour at 4 °C while rotating. After 1 hour, the suspension was placed on a magnetic rack and washed twice with 1 mL SH2 buffer.
Preparing the phosphorylated cells
150 μL of prepared cells per sample were spun down for 4000 rpm for 5 minutes at 4 °C.
Kinase screen buffer was prepared (50 mM Tris, 10 mM magnesium chloride, 150 mM sodium chloride; add 2 mM sodium orthovanadate and 1 mM TCEP fresh) and the cells of each sample were resuspended in 100 μL kinase screen buffer. Kinases c-Src, c-Abl, AncSZ, Eph1B were added to a final concentration of 2.5 µM each, creatine phosphate was added to a final concentration of 5 mM, and phosphokinase was added to a final concentration of 50 µg/mL. The suspension was incubated at 37 °C for 5 minutes before ATP was added to a final concentration of 1 mM. This mixture was incubated at 37 °C for 3 hours. After 3 hours, EDTA was added to a final concentration of 25 mM to quench the reaction. The input library control sample was not phosphorylated. These cells were spun down at 4000 rpm for 15 minutes at 4 °C. The cells were then resuspended in 100 µL of SH2 buffer […]
In the case of `CC[C@H](C)[C@H](NC(=O)[C@H](Cc1ccc(OP(=O)(O)O)cc1)NC(=O)[C@H](CC(N)=O)NC(=O)[C@H](CC(C)C)NC(=O)CNC(=O)[C@H](CC(N)=O)NC(=O)[C@H](CCC(=O)O)NC(=O)[C@H](CC(C)C)NC(C)=O)C(=O)N[C@@H](CC(=O)O)C(=O)N[C@@H](CC(C)C)C(=O)N[C@@H](CC(=O)O)C(=O)N[C@@H](CC(C)C)C(=O)N[C@H](C(N)=O)C(C)C`, the concentration for a half-maximal effect (EC50) stood at 1.43 µM.
The same measure for `CC(=O)N[C@@H](CO)C(=O)N[C@H](C(=O)NCC(=O)N[C@@H](CO)C(=O)N[C@H](C(=O)N[C@@H](CC(=O)O)C(=O)N[C@@H](Cc1ccc(OP(=O)(O)O)cc1)C(=O)N[C@@H](CC(C)C)C(=O)N[C@@H](C)C(=O)N[C@@H](CC(C)C)C(=O)N[C@@H](CC(=O)O)C(=O)N[C@@H](Cc1ccccc1)C(=O)N[C@@H](CCC(N)=O)C(N)=O)C(C)C)[C@@H](C)O`: 5.98 µM.
Regarding `CC[C@H](C)[C@H](NC(=O)[C@H](CC(=O)O)NC(=O)[C@H](C)NC(=O)[C@H](Cc1ccc(OP(=O)(O)O)cc1)NC(=O)[C@H](CCCCN)NC(=O)[C@@H](NC(=O)[C@H](CC(=O)O)NC(=O)CNC(=O)[C@H](CCCCN)NC(=O)[C@H](CCSC)NC(C)=O)C(C)C)C(=O)N[C@@H](CCC(=O)O)C(=O)N[C@@H](CO)C(=O)N[C@@H](CO)C(N)=O`, the EC50 came out at 120 µM.
To `CC(=O)N1CCC[C@H]1C(=O)N[C@H](C(=O)N[C@@H](Cc1ccccc1)C(=O)N[C@@H](CO)C(=O)N[C@H](C(=O)N[C@@H](CC(=O)O)C(=O)N[C@@H](Cc1ccc(OP(=O)(O)O)cc1)C(=O)NCC(=O)N[C@@H](CCC(=O)O)C(=O)N[C@@H](CC(C)C)C(=O)N[C@@H](CC(=O)O)C(=O)N[C@@H](Cc1ccccc1)C(=O)N[C@@H](CCC(N)=O)C(N)=O)C(C)C)C(C)C` belongs 6.55 µM; to `CC(=O)N[C@@H](C)C(=O)N[C@@H](CCCCN)C(=O)N[C@@H](CO)C(=O)NCC(=O)N[C@@H](C)C(=O)N[C@H](C(=O)N[C@@H](Cc1ccc(OP(=O)(O)O)cc1)C(=O)N[C@@H](CO)C(=O)N[C@@H](CCC(=O)O)C(=O)N[C@@H](CC(C)C)C(=O)N[C@@H](CC(N)=O)C(=O)N[C@@H](Cc1ccccc1)C(=O)NCC(N)=O)C(C)C`, 166 µM.
Take `CSCC[C@H](NC(=O)[C@H](CC(C)C)NC(=O)[C@H](CCC(N)=O)NC(=O)[C@H](C)NC(=O)[C@H](Cc1ccc(OP(=O)(O)O)cc1)NC(=O)[C@H](CC(N)=O)NC(=O)[C@H](CC(C)C)NC(=O)[C@H](C)NC(=O)[C@H](C)NC(=O)[C@H](CCCCN)NC(=O)[C@H](CCCCN)NC(C)=O)C(=O)N[C@@H](Cc1ccccc1)C(=O)N1CCC[C@H]1C(N)=O`: the EC50 was found to be 4.2 µM.
To `CC[C@H](C)[C@H](NC(=O)[C@H](CC(N)=O)NC(=O)[C@@H](NC(=O)[C@H](Cc1ccc(OP(=O)(O)O)cc1)NC(=O)[C@H](CCC(=O)O)NC(=O)CNC(=O)[C@@H]1CCCN1C(=O)[C@H](CO)NC(=O)[C@H](CCCCN)NC(=O)[C@@H]1CCCN1C(C)=O)C(C)C)C(=O)N[C@@H](CCC(=O)O)C(=O)N[C@@H](Cc1ccccc1)C(=O)NCC(N)=O` belongs 29.6 µM; to `CC[C@H](C)[C@H](NC(=O)[C@@H](NC(=O)[C@H](C)NC(=O)[C@H](Cc1ccc(OP(=O)(O)O)cc1)NC(=O)[C@H](CCC(=O)O)NC(=O)[C@@H](NC(=O)[C@H](CCC(N)=O)NC(=O)[C@H](CCC(=O)O)NC(=O)[C@@H]1CCCN1C(=O)[C@@H](NC(C)=O)C(C)C)[C@@H](C)O)[C@@H](C)O)C(=O)N[C@H](C(=O)N[C@@H](Cc1ccccc1)C(=O)N1CCC[C@H]1C(N)=O)C(C)C`, 6.26 µM; to `CC[C@H](C)[C@H](NC(=O)[C@@H](NC(=O)[C@H](C)NC(=O)[C@H](Cc1ccc(OP(=O)(O)O)cc1)NC(=O)[C@@H](NC(=O)[C@@H]1CCCN1C(=O)[C@H](CCC(=O)O)NC(=O)[C@@H]1CCCN1C(=O)[C@H](CO)NC(=O)[C@@H](NC(C)=O)C(C)C)[C@@H](C)CC)[C@@H](C)O)C(=O)N[C@@H](CC(=O)O)C(=O)N[C@@H](CC(=O)O)C(=O)N[C@@H](CC(C)C)C(N)=O`, 27.3 µM.
